Reference: article PMC5074076, “Novel minimal physiologically-based model for the prediction of passive tubular reabsorption and renal excretion clearance” (European Journal of Pharmaceutical Sciences, 2016)
Several values for one entry are separate records, joined by “and”; a condition that tells them apart may be missing. Equal entries are not always repeated. Where two headings read alike, the source gives them in different places.

Experiments:
[1] = Observed clearance ratio and fraction reabsorbed (Freab, Freab′) calculated from CLR, fu,p and GFR; settings: for Apparent Freab / Apparent Freab’: calculated from observed CLR, fu,p and GFR; for Freab: observed/apparent, 1 - CLR/(GFR x fu,p), GFR 120 mL/min
Description: The clearance ratio was calculated from clinical data using Eqs. […] For the remaining drugs the fraction reabsorbed (Freab) was calculated using Eq.
GFR values for healthy subjects may vary as a result of biological as well as inter-individual variation and also the method of measurement. […] Individual GFR values for subjects in clinical trials databases were generally not available.
In the proposed model, the nephron is represented as five compartments, namely the glomerulus and four tubular regions, as depicted in Fig. 1. The tubular compartments in the model, listed in anatomical order starting from the glomerulus are: the proximal tubule (PT), the loop of Henle (LoH), the distal tubule (DT) and the collecting duct (CD). […] The relationship between Freab′ and Freab is shown in Eq. (11). The predicted overall Freab′ was calculated from the predicted Freab′ in each (i) tubular region (Freab,i′), as shown in Eq. (12).

[2] = LogD7.4 octanol-buffer, shake-flask (or ACD / BioByte); settings: pH 7.4
Description: (§1) The pKa values associated with ionisable centres identified within a given drug were used to calculate the fraction of drug ionised at pH 6.5. Drugs were then classified into groups as follows: drugs with > 50% unionised at pH 6.5 were classified as “Neutral”; drugs with > 50% ionised as mono −/di −/tri-protic acids or bases were classified as “Acid” or “Base”, respectively; “Zwitterions” were classified as drugs with > 50% ionised, with the major ionised species having no net charge; all other drugs were classified as amphoteric. […] LogD6.5 for neutral, amphoteric and zwitterion drugs were assumed to be equal to LogD7.4.

[3] = Ionisation classification at pH 6.5 from pKa; type: physicochemical; settings: predominant species (> 50%) at pH 6.5 from measured or calculated pKa
Description: as §1

[4] = LogD6.5 estimated from LogD7.4 and pKa; settings: octanol/buffer, pH 6.5
Description: as §1

[5] = cited from earlier work; for CLR: healthy adult subjects, overall weighted mean of literature values, absolute (not normalised), ref Supplementary Results Table S2.1; for Overall weighted mean CLR: healthy subjects, plasma and urine data from same subjects, normalised for subject weight and body surface area where necessary; for Overall weighted mean CLR / CLR Observed: ref Table S2.1; for CLR Observed: overall weighted mean of values obtained from a literature survey
[6] = Caco-2 apparent permeability (Papp), apical to basolateral, pH 6.5-7.4 gradient, efflux inhibitor cocktail; settings: human, Caco-2, pH 6.5
Description: (§2) The assay was performed using the apical to basolateral pH gradient format of pH 6.5 to pH 7.4. […] The efflux transporter inhibitor cocktail was used to minimise the effect of efflux transporters expressed in Caco-2 cells (e.g. P-glycoprotein, BCRP and MRP2) on the estimate of apical to basolateral Papp of substrates for such transporters.

[7] = pKa, potentiometric AstraZeneca in-house assay (or ACD / BioByte)
Description: as §1

[8] = Papp-Freab′ calibration of Caco-2 Papp with reference drugs and CLR prediction; parameters: species or system human; settings: reference drugs; calibrated Caco-2 Papp after Hill equation fitting
Description: To account for this and to allow the Caco-2 data in the present study to be transferable to other assay formats/laboratories, a Papp–Freab′ calibration method was explored by splitting the available Papp and Freab′ data into ‘reference’ and internal ‘validation’ subsets. […] The calibration approach is proposed as a pragmatic method to account for inter-assay/inter-laboratory differences; herein it is applied to the current dataset only, and not external data as intended for future studies.
In order to evaluate the application of Papp–Freab′ calibration (Eq. (17)), 11 drugs were selected as reference ‘calibrator’ drugs (Papp,ref) covering a representative range of Freab′ and Papp values (Table 5). The remaining 34 drugs were treated as an internal ‘validation’ set.

[9] = tested on: Caco-2 cell monolayers; assay: Caco-2 apparent permeability (Papp), apical to basolateral, pH 6.5-7.4 gradient, efflux inhibitor cocktail; settings: Caco-2, apical to basolateral, pH 6.5 to 7.4, efflux inhibitor cocktail, 2 h
Description: as §2

[10] = pKa (acid), measured, potentiometric
[11] = pKa (base), measured, potentiometric

Row | SMILES | Apparent Freab [1] | Apparent Freab’ [1] | Freab [1] | logD ([2]; octanol/buffer) | Ionisation at pH 6.5 [3] | logD [4] | Papp A→B at 2 h [6] [×10⁻⁶ cm/s] | pKa [7, 10] | pKa [7] | pKa [7, 11] | Freab ([1]; listed as isoxicam) | Freab′ ([1]; observed, fraction of equilibrium reached between urine and plasma) | Freab ([1]; listed as probenecid) | Papp,ref,calibrated [8] | Papp [9] | CLR [5] | Overall weighted mean CLR [5] [mL/min] | CLR Observed [5] [mL/min] | logD [2] | CLR ([5]; listed as isoxicam) [mL/min]
1 | O=C(NCCN1CCOCC1)c1ccc(Cl)cc1 [Moclobemide] | 0.943 | 0.951 | 0.94 | 1.6 | Base | 1.34 | 64.4 |  |  |  |  |  |  |  |  | 3.42 mL/min | 3.4 | 3.42 |  | 
2 | CCCCC1=NC2(CCCC2)C(=O)N1Cc1ccc(-c2ccccc2-c2nnn[nH]2)cc1 [Irbesartan] | 0.623 | 0.628 | 0.62 | 1.29 | Acid | 2.19 | 44 | 3.91 |  |  |  |  |  |  |  | 2.37 mL/min | 2.4 | 2.37 |  | 
3 | CCN(CC)CCCN(c1ccccc1)C1Cc2ccccc2C1 [Aprindine] | 0.785 | 0.791 | 0.78 | 2.5 | Base | 1.53 | 31.8 |  |  |  |  |  |  |  |  | 1.28 mL/min | 1.3 | 1.28 |  | 
4 | COCCc1ccc(OCC(O)CNC(C)C)cc1 (centres unmarked) [Metoprolol] | -0.050 | -0.050 |  |  | Base |  | 17 |  | 9.4 |  |  |  |  |  |  | 110 mL/min | 109.6 | 109.58 |  | 
5 | Cc1c(F)c(N2CCNC(C)C2)cc2c1c(=O)c(C(=O)O)cn2C1CC1 (centres unmarked) [Grepafloxacin] | 0.350 | 0.353 | 0.35 | 0.5 | Zwitterion | 0.5 | 110 |  |  |  |  |  |  |  |  | 47.6 mL/min | 47.6 | 47.60 |  | 
6 | CN1CCN(c2cc3c(cc2F)c(=O)c(C(=O)O)cn3-c2ccc(F)cc2)CC1 [Difloxacin] | 0.939 | 0.947 | 0.94 |  | Zwitterion |  | 74.6 | 5.81 |  | 7.39 |  |  |  |  |  | 4.54 mL/min | 4.5 | 4.54 |  | 
7 | Cc1cc(NC(=O)C2=C(O)c3ccccc3S(=O)(=O)N2C)no1 [Isoxicam] | 0.995 | 1.003 | 1.00 |  | Acid | 0.7 | 142 | 3.84 |  |  | ≥ 0.99 | 1 |  |  |  | 0.02 mL/min |  | 0.02 |  | 0.022
8 | COc1ccc(C(CN(C)C)C2(O)CCCCC2)cc1 (centres unmarked) [Venlafaxine] | 0.088 | 0.089 | 0.09 |  | Base | 0.05 | 27.6 |  |  |  |  |  |  |  |  | 80.0 mL/min | 80.0 | 80.00 | 0.95 | 
9 | CN(C)CCCN1c2ccccc2CCc2ccccc21 [Imipramine] |  |  |  |  |  |  |  |  |  | 9.17 |  |  |  |  |  |  |  |  |  | 
10 | CN(C)CCC=C1c2ccccc2COc2ccccc21 [Doxepin] | 0.638 | 0.643 | 0.64 | 2.23 | Base | 1.41 | 36.5 |  |  |  |  |  |  |  |  | 9.75 mL/min | 9.8 | 9.75 |  | 
11 | CC(C)NCC(O)COc1ccc(CCOCC2CC2)cc1 (centres unmarked) [Betaxolol] | 0.081 | 0.081 | 0.08 | 0.63 | Base |  | 20 |  |  | 9.53 |  |  |  |  |  | 49.6 mL/min | 49.6 | 49.64 |  | 
12 | N=C(N)c1ccc(CNC(=O)[C@@H]2CCN2C(=O)[C@H](NCC(=O)O)C2CCCCC2)cc1 [Melagatran] | -0.021 | -0.021 |  |  | Amphoteric |  | 0.145 | 2.12 |  |  |  |  |  |  |  | 114 mL/min | 113.7 | 113.74 |  | 

Second part, led by results:

Row | Apparent Freab [1] | Apparent Freab’ [1] | Freab [1] | logD ([2]; octanol/buffer) | Ionisation at pH 6.5 [3] | logD [4] | Papp A→B at 2 h [6] [×10⁻⁶ cm/s] | pKa [7, 10] | pKa [7] | pKa [7, 11] | Freab ([1]; listed as isoxicam) | Freab′ ([1]; observed, fraction of equilibrium reached between urine and plasma) | Freab ([1]; listed as probenecid) | Papp,ref,calibrated [8] | Papp [9] | SMILES | CLR [5] | Overall weighted mean CLR [5] [mL/min] | CLR Observed [5] [mL/min] | logD [2] | CLR ([5]; listed as isoxicam) [mL/min]
13 | 0.299 | 0.301 | 0.30 | 1.25 | Neutral | 1.25 | 37.3 |  |  |  |  |  |  |  |  | C[C@]12C=CC(=O)C=C1CC[C@@H]1[C@@H]2C(=O)C[C@@]2(C)[C@H]1CC[C@]2(O)C(=O)CO [Prednisone] | 37.9 mL/min | 37.9 | 37.87 |  | 
14 | 0.547 | 0.552 | 0.55 |  | Base | 1.27 | 32.3 |  |  |  |  |  |  |  |  | CCCN1CCCC[C@H]1C(=O)Nc1c(C)cccc1C [Ropivacaine] | 2.73 mL/min | 2.7 | 2.73 | 2.1 | 
15 | 0.856 | 0.863 | 0.86 | 0.6 | Neutral | 0.61 | 46.2 |  |  |  |  |  |  |  |  | CC1(C)O[C@@H]2[C@@H](CO[C@@]3(COS(N)(=O)=O)OC(C)(C)O[C@@H]23)O1 [Topiramate] | 15.1 mL/min | 15.1 | 15.05 |  | 
16 | 0.955 | 0.963 | 0.96 |  | Acid | 0.76 | 84.5 | 3.36 |  |  |  |  | 0.955 |  |  | CCCN(CCC)S(=O)(=O)c1ccc(C(=O)O)cc1 [Probenecid] | 0.50 mL/min | 0.5 | 0.50 |  | 
17 | 0.019 | 0.019 | 0.02 |  | Zwitterion |  | 0.85 |  |  |  |  |  |  | 0.01 × 10^− 6 cm/s | 0.85 × 10^− 6 cm/s | CN(C)[C@@H]1C(O)=C(C(N)=O)C(=O)[C@@]2(O)C(O)=C3C(=O)c4c(O)cccc4[C@@](C)(O)[C@H]3[C@H](O)[C@@H]12 [Oxytetracycline] | 90.8 mL/min | 90.8 | 90.80 |  | 
18 | 0.084 | 0.085 | 0.08 |  | Neutral |  | 1.55 |  |  |  |  |  |  | 0.03 × 10^− 6 cm/s |  | NC(=O)c1ncn([C@@H]2O[C@H](CO)[C@@H](O)[C@H]2O)n1 [Ribavirin] | 109.9 mL/min and 110 mL/min | 109.9 | 109.94 |  | 
